1 compound from patent US20210275443A1, “SUSTAINED-RELEASE INJECTION PREPARATION CONTAINING DONEPEZIL DERIVATIVE” (NANJING NORATECH PHARMACEUTICAL CO., LTD., priority 2018, published 2021) can be followed below.

SMILES strings stand for the structures.

The conditions of this series: after i.m. administration of the suspension.

Procedure: There were 3 animals in each group. […] The whole blood was centrifuged to collect plasma, which was transferred to a 96-well plate, and stored at −20° C. for detection by LC-MS/MS. The drug concentration at each sampling time was determined by measuring the standard curve of reference donepezil in plasma.

In the case of `CCCCCCC(=O)OC1=C(CC2CCN(Cc3ccccc3)CC2)Cc2cc(OC)c(OC)cc21` [donepezil heptanoate, Donepezil Heptanoate], the “Metabolism of the prodrug into donepezil after administration” value is reported as “rapidly metabolized into donepezil”.
